Reference: US20210198277A1, “AMINE-SUBSTITUTED ARYL OR HETEROARYL COMPOUNDS” (Epizyme, Inc., priority 2016, published 2021)
Read-outs that look alike come from different tables or passages of the source.

Legend:
[1] = molecular target: T1, human EHMT2 913-1193 (Homo sapiens, UniProt Q96KQ7); assay: EHMT2 enzyme assay on histone peptide substrate (EHMT2 PEP); assay type: biochemical; conditions: read-out: EHMT2 PEP IC50
T1 construct: recombinant purified human EHMT2 913-1193, Viva; purchased Viva
T1 sequence (Q96KQ7 913-1193): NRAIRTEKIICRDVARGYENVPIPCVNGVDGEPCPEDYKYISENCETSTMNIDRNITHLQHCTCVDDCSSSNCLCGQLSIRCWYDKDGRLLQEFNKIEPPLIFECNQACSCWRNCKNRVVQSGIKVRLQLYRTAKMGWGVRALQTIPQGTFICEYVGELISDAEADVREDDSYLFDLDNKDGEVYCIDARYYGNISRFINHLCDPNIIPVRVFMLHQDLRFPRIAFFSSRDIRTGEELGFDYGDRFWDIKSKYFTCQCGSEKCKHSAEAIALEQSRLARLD
Method in brief: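 Radiometric methyltransferase assay: 0.031 nM EHMT2 913-1193 preincubated 30 min with compound (10-point 3-fold series, top final 50 μM, 2% DMSO) in 20 mM Bicine pH 7.5, 1 mM TCEP. Biotinylated histone peptide methylated with ^3H-SAM for 60 min at room temperature, quenched with unlabeled SAM, captured on streptavidin Flashplates and counted.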

[2] = molecular target: T2, EHMT1 (Homo sapiens, UniProt Q9H9B1); assay: EHMT1 enzyme assay on peptide substrate (EHMT1 PEP); assay type: biochemical; conditions: read-out: EHMT1 PEP IC50
T2 sequence (Q9H9B1 1-1298): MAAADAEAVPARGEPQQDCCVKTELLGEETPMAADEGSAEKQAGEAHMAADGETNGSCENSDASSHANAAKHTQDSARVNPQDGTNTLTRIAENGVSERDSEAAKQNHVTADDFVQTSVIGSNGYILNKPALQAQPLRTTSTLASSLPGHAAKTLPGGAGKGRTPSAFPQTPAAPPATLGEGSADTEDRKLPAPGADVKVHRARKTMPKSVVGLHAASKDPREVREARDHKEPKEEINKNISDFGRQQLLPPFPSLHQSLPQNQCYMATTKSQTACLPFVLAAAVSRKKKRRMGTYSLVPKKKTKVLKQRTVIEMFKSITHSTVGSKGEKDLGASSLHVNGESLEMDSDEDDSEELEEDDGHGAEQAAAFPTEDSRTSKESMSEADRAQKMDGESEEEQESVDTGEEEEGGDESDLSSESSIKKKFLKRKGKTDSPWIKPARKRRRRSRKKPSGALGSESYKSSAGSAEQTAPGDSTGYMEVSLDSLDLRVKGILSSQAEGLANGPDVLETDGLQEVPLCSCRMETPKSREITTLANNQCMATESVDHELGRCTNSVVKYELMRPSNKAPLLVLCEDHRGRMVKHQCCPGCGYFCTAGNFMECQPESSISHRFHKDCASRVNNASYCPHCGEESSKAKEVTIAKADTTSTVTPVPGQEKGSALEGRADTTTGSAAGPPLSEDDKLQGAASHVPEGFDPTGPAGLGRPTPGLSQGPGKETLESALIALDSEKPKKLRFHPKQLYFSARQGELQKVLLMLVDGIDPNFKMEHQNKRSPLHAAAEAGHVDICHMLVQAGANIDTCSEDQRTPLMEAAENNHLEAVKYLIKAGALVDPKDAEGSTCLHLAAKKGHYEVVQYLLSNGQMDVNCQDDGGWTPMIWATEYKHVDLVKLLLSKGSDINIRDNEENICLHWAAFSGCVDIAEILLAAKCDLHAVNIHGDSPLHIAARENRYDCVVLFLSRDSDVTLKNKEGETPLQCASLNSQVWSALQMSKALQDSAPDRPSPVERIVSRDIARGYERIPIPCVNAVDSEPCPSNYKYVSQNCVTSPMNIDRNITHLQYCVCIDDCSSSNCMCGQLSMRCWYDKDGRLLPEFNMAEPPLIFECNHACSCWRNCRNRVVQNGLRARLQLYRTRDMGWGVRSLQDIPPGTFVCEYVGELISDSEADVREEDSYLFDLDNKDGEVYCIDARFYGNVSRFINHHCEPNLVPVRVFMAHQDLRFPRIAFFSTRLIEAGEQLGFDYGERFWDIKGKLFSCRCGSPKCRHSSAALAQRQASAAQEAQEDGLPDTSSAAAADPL

Row | IC50 ([1]; Table VI) [nM] | IC50 ([2]; Table VI) [nM] | IC50 ([1]; Table VII) [nM] | IC50 ([2]; Table VII) [nM] | Compound
1 | > 10000 | > 10000 | – | – | CNc1cc(C)nc(Nc2ccc(OC)c(OC[C@H]3CCN(C(C)(C)C)C3)c2)n1 [Compound 610]
2 | < 100 | < 100 | – | – | COc1ccc(Nc2nc(C)cc(NC3CCCN(C)C3)n2)cc1OCCCN1CCCC1 (stereo not shown) [Compound 787]
3 | 100 to 1000 | < 100 | – | – | COc1ccc(Nc2nc(C)cc(NC3CCCOC3)n2)cc1OCCCN1CCCC1 (stereo not shown) [Compound 788]
4 | < 100 | < 100 | – | – | COc1ccc(Nc2nc(C)cc(NC3CCOC3)n2)cc1OCCCN1CCCC1 (stereo not shown) [Compound 789]
5 | – | – | < 100 | < 100 | CNc1ccnc(Nc2ccc(OC)c(OC[C@H](O)CN3CCC3)c2)n1 [Compound 1047]
6 | – | – | 100 to 1000 | < 100 | CNc1ccnc(Nc2cnc(OC)c(OCCCN3CCCC3)c2)n1 [Compound 1048]
7 | – | – | 100 to 1000 | < 100 | CNc1ccnc(Nc2cnc(OC)c(OCCCN3CCC3)c2)n1 [Compound 1050]
8 | – | – | 100 to 1000 | 100 to 1000 | CNCCCOc1cc(Nc2nccc(NC)n2)ccc1OC [Compound 1052]
9 | – | – | 1000 to 10000 | 100 to 1000 | CNCCCOc1cc(Nc2nccc(NC)n2)cnc1OC [Compound 1053]
10 | – | – | 1000 to 10000 | 100 to 1000 | CNC[C@@H](O)COc1cc(Nc2nccc(NC)n2)ccc1OC [Compound 1054]
11 | – | – | 100 to 1000 | < 100 | CCN1CC[C@@H](COc2cc(Nc3nccc(NC)n3)ccc2OC)C1 [Compound 1055]

Continued, molecule first:

Row | Compound | IC50 ([1]; Table VI) [nM] | IC50 ([2]; Table VI) [nM] | IC50 ([1]; Table VII) [nM] | IC50 ([2]; Table VII) [nM]
12 | CNc1cc2sccc2c(Nc2cc(OCCCN3CCCC3)c(OC)cn2)n1 [Compound 609] | 100 to 1000 | 100 to 1000 | – | –
13 | CNc1nc(C2CCCCN2C)c2cc(OC)c(OCCCN3CCCC3)cc2n1 (stereo not shown) [Compound 747] | 100 to 1000 | 100 to 1000 | – | –
14 | CNc1nc(C2CCN(C)C2)c2cc(OC)c(OCCCN3CCCC3)cc2n1 (stereo not shown) [Compound 748] | 100 to 1000 | 100 to 1000 | – | –
15 | CNc1nc(C2CN(C)C2)c2cc(OC)c(OCCCN3CCCC3)cc2n1 [Compound 753] | < 100 | < 100 | – | –
16 | COc1cc2c(C3CN(C)C3)nc(C)nc2cc1OCCCN1CCCC1 [Compound 754] | 1000 to 10000 | 1000 to 10000 | – | –
17 | COc1cc2c(C3CCN(C4CCOCC4)CC3)cc(C)nc2cc1OCCCN1CCCC1 [Compound 755] | < 100 | < 100 | – | –
18 | COc1cc2c(C3CCN(C4CCOC4)CC3)cc(C)nc2cc1OCCCN1CCCC1 (stereo not shown) [Compound 756] | < 100 | < 100 | – | –
19 | CNc1cc(C2CCN(C3CCOCC3)CC2)c2cc(OC)c(OCCCN3CCCC3)cc2n1 [Compound 757] | < 100 | < 100 | – | –
20 | CNc1cc(C2CCN(C3CCOC3)CC2)c2cc(OC)c(OCCCN3CCCC3)cc2n1 (stereo not shown) [Compound 758] | < 100 | < 100 | – | –
21 | CNc1nc(C2CCN(C3CCOC3)CC2)c2cc(OC)c(OCCCN3CCCC3)cc2n1 (stereo not shown) [Compound 759] | < 100 | < 100 | – | –
22 | COc1cc2c(C3CCN(C4CCOC4)CC3)nc(C)nc2cc1OCCCN1CCCC1 (stereo not shown) [Compound 760] | 1000 to 10000 | 1000 to 10000 | – | –
23 | COc1cc2c(C)cc(N3CCOCC3)nc2cc1OCCCN1CCCC1 [Compound 761] | 1000 to 10000 | 1000 to 10000 | – | –
24 | COc1cc2c(C)nc(N3CCOCC3)nc2cc1OCCCN1CCCC1 [Compound 762] | > 10000 | > 10000 | – | –
25 | COc1cc2c(C#CCN3CCOCC3)cc(C)nc2cc1OCCCN1CCCC1 [Compound 763] | > 10000 | > 10000 | – | –
26 | CNc1cc(C#CCN2CCOCC2)cc2cc(OCCCN3CCCC3)c(OC)cc12 [Compound 784] | 1000 to 10000 | 1000 to 10000 | – | –
27 | CNc1cc2cc(OCCCN3CCCC3)c(OC)cc2cc1Cl [Compound 1043] | – | – | 1000 to 10000 | 100 to 1000
28 | CNc1cc(C2CCOCC2)c2cc(OC)c(C#CCN3CCCC3)cc2n1 [Compound 1049] | – | – | 100 to 1000 | < 100
29 | CNc1ccnc(Nc2cnc(OC)c(OC[C@@H]3CCN(C4CC4)C3)c2)n1 [Compound 1051] | – | – | < 100 | < 100
